Consider seven molecules from US7812035B2, “4-substituted piperidines, and methods of use thereof” (Sepracor Inc., priority 2001, dated 2010).

Common to all, as to assay type: cell-based
One assay addresses serotonin transporter (UniProt P31645). Description: 5-HT uptake inhibition (monoamine transporter antagonism, methods of Gu et al). To be noted: 1 μM compound.
In assay [1] the target is norepinephrine transporter (Homo sapiens, UniProt P23975). Nature of the assay: NE uptake inhibition (monoamine transporter antagonism, methods of Galli et al). To be noted: read-out: NE uptake (% inhibition @1 μM).
Another assay deals with dopamine transporter. Description: DA uptake inhibition (monoamine transporter antagonism, methods of Gu et al). To be noted: 1 μM compound.

Structures are written as SMILES. Read-outs that look alike come from different tables or passages of the source.

Sequence of norepinephrine transporter (P23975 whole entry): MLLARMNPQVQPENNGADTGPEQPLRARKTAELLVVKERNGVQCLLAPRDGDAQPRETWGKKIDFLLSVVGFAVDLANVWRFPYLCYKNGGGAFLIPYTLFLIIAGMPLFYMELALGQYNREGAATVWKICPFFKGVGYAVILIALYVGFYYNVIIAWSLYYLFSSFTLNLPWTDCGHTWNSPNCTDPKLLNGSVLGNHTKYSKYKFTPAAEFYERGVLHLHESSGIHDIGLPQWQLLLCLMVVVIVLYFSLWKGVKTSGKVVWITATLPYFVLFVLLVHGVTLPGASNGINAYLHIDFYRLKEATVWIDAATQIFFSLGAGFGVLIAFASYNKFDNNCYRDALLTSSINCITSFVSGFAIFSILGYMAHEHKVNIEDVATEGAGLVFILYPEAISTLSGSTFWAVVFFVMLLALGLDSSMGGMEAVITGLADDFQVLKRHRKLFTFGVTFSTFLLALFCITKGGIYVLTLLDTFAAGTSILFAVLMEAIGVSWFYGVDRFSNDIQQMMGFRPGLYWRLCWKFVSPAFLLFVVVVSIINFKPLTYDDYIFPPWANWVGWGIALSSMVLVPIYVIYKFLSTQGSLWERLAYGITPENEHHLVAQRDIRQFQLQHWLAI

Consider `OC1CCN(CC2(c3ccc(Cl)cc3)CCC2)CC1` [Compound 2, 1-[1-(4-Chloro-phenyl)-cyclobutylmethyl]-piperidin-4-ol], for which, at serotonin transporter, the “5-HT uptake (% inhibition @1 μM)” value was determined as 36%. Also, the inhibition at 1 µM in assay [1] came out at 65%. The “DA uptake (% inhibition @1 μM)” value in the assay with dopamine transporter was 88%.
Consider `FC(F)(F)c1cc(COC2CCN(CC3(c4ccc(Cl)cc4)CCC3)CC2)cc(C(F)(F)F)c1` [Compound 5], for which the “5-HT uptake (% inhibition @1 μM)” value at serotonin transporter is 14%. The inhibition at 1 µM in assay [1] (1 μM compound) came out at 85%. In the assay on dopamine transporter, the “DA uptake (% inhibition @1 μM)” value turned out to be 61%.
Take `FC(F)(F)c1ccc(COC2CCN(CC3(c4ccc(Cl)cc4)CCC3)CC2)cc1` [Compound 6, [1-(4-chloro-phenyl)-cyclobutylmethyl]-4-(4-trifluoromethyl-benzyloxy)-piperidine]: the “5-HT uptake (% inhibition @1 μM)” value on serotonin transporter came to 9%. Also, the inhibition at 1 µM in assay [1] was 78%. Also, the “DA uptake (% inhibition @1 μM)” value with dopamine transporter is reported as 85%.
Regarding `FC(F)(F)c1ccc(OC2CCN(CC3(c4ccc(Cl)cc4)CCC3)CC2)cc1` [Compound 8, 1-[1-(4-chloro-phenyl)-cyclobutylmethyl]-4-(4-trifluoromethal-phenoxy)-piperidine], at serotonin transporter, the “5-HT uptake (% inhibition @1 μM)” value is listed as 56%. Also, the inhibition at 1 µM in assay [1] was 38%. Further, in the assay with dopamine transporter, the “DA uptake (% inhibition @1 μM)” value was determined as 25%.
On to `OCC1CCN(CC2(c3ccc(Cl)cc3)CCC2)CC1` [Compound 10, {1-[1-(4-chloro-phenyl)-cyclobuylmethyl]-piperidin-4-yl}-methanol], for which the “5-HT uptake (% inhibition @1 μM)” value on serotonin transporter came out at 21%. In addition, in assay [1], the inhibition at 1 µM was found to be 62%. The “DA uptake (% inhibition @1 μM)” value with dopamine transporter turned out to be 70%.
Turning to `FC(F)(F)c1ccc(COCC2CCN(CC3(c4ccc(Cl)cc4)CCC3)CC2)cc1` [Compound 11], the “5-HT uptake (% inhibition @1 μM)” value on serotonin transporter is 87%. The inhibition at 1 µM in assay [1] (1 μM compound) was 97%. In addition, the “DA uptake (% inhibition @1 μM)” value with dopamine transporter was found to be 97%.
In the case of `FC(F)(F)c1ccc(OCC2CCN(CC3(c4ccc(Cl)cc4)CCC3)CC2)cc1` [Compound 13, 1-[1-(4-Chloro-Phenyl)-Cyclobutylmethyl]-4-(4-Trifluoromethyl-Phenoxymethyl)-Piperidine], the “5-HT uptake (% inhibition @1 μM)” value at serotonin transporter amounted to 83%. In addition, the inhibition at 1 µM in assay [1] was determined as 97%. Further, the “DA uptake (% inhibition @1 μM)” value with dopamine transporter is recorded as 94%.

The inhibition is how much of the control response was suppressed.
